Legend:
[1] = target: T1, peripheral type CCK receptors in rat pancreas (Rattus norvegicus, UniProt P30551); test: Binding to peripheral type CCK receptors in rat pancreas (3H-L-364,718); settings: for inhibition at 10 µM: read-out: Pancreas Percent Inhibition; for IC50: rat pancreas
T1 construct: Pancreas was obtained from male Sprague-Dawley rats; from tissue; host or cells: pancreas membranes of male Sprague-Dawley rats
T1 sequence (P30551 1-444): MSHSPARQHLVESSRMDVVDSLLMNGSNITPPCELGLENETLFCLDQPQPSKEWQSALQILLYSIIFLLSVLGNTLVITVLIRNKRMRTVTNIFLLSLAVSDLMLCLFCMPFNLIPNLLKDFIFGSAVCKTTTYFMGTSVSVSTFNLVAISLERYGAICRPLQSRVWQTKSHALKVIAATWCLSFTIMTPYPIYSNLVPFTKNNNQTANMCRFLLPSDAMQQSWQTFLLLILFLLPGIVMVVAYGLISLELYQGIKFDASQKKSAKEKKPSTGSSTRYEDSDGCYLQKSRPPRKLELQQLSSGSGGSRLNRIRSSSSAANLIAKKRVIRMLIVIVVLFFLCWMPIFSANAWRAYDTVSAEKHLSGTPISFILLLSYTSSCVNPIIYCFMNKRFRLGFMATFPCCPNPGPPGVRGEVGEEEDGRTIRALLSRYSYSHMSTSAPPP
Experimental: Binding to peripheral type CCK receptors in rat pancreas was done according to the method of Chang et al. (Mol. Pharmacol. 30: 212-217, 1986) using ^3 H-L364, 718. Pancreas was obtained from male Sprague-Dawley rats, 150-200 g, after decapitation, and dissected free from adipose and connective tissue. The tissue was homogenized in 30 volumes of 50 mM Tris buffer, pH 7.4 and centrifuged at 40,000 g for 10 min. The tissue pellet was washed by resuspension and centrifugation as described above. The final pellet was suspended in 500 volumes of assay buffer (50 mM Tris buffer, pH 7.4, 5 mM MgCl2, 0.14 mg/ml bacitracin, and 5 mM dithiothreitol) to give a protein concentration of 30-60 μg/200 μl . Reagent volumes for the assay were the same as those used for CCK binding to brain membranes. Tritium labeled L-364,718 (Dupont NEN, NET-971) was used as the ligand at a concentration of 0.4-0.6 nM. The samples were incubated 1 hour at room temperature and then filtered as described for the CCK-brain receptor. Scintillation cocktail was added to the filters which were counted for radioactivity using a Micromedic Taurus automatic liquid scintillation counter.
Compound samples were prepared and IC-50 values were determined as described for the CCK-brain experiments. Non-specific binding was that amount left bound to the filters after adding 100 nM L-364,718.

brain CCK receptor = target: T2, brain CCK receptor (Mus musculus, UniProt P56481); test: CCK receptor binding, mouse brain membranes (125I-CCK-8 sulfate); settings: for IC50: mouse brain membranes, read-out: Brain IC50; for inhibition at 10 µM / inhibition at 1 µM: read-out: Brain Percent Inhibition
T2 construct: from tissue; host or cells: forebrain membranes of male CF-1 mice
T2 sequence (P56481 1-453): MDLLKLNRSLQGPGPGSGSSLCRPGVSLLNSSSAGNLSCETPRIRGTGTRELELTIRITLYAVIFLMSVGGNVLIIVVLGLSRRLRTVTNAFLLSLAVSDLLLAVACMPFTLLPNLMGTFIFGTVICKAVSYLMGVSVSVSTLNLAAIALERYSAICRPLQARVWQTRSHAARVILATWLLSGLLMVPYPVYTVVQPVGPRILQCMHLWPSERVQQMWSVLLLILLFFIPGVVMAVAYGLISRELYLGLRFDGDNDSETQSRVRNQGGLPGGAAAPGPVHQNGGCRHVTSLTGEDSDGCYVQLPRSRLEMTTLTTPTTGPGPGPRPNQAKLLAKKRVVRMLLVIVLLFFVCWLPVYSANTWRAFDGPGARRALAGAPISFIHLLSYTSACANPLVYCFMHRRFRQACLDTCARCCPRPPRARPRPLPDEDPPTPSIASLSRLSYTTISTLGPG
Experimental: Brain CCK receptor binding was performed using mouse brain membranes according to the method of Chang and Lotti (Proc. Natl. Acad. Sci. 83: 4923-4926, 1986). Male CF-1 mice, 23-25 g were sacrificed by cervical dislocation, the forebrain removed and placed in ice cold 50 mM Tris buffer, pH 7.4. The tissue was homogenized in 100 volumes of the Tris buffer with a Brinkman Polytron or Tekmar Tissumizer and then centrifuged at 40,000 g for 10 min. Pellets were resuspended in Tris buffer, centrifuged as above and then resuspended in 100 volumes of assay buffer, pH 6.5 (20 mM N-2-hydroxyethyl-piperazine-N'-2-ethane sulfonic acid (HEPES), 1 mM ethylene glycol his (2-aminoethyl ether-N,N,N',N'-tetraacetic acid) (EGTA), 5 mM MgCl2, 130 mM NaCl, and 0.25 mg/ml bacitracin). The binding assay consisted of 50 μL of compound (or buffer for total binding), 50 μL of ^125 I-CCK-8 sulfate (20 pM) (Amersham IM- 159), 200 μL of assay buffer and 200 μL of homogenate (80-120 μg protein). The samples were incubated at room temperature (25°) for 2 hours, and they were then filtered through GF/B glass fiber filters (soaked in wash buffer for 2 hours before use) using a 48 well Brandel cell harvester designed for receptor binding. The filters were washed twice with 3 ml of 50 mM Tris buffer, pH 7.4, containing 0.01% BSA and then counted for radioactivity in plastic tubes with a Micromedic 10/600 automatic gamma counter.
Compounds were dissolved in dimethyl sulfoxide (DMSO) at a concentration of 10 mM and then further diluted with assay buffer. The concentration of DMSO in the incubation was 0.1% or less and had no effect on the assay at that level. IC-50 values of displacement curves were determined using 7 concentrations of compound and were calculated using the ALLFIT computer program of DeLean, Munson and Rodbard (Am. J. Physiol. 235: E97-E102, 1978). Non-specific binding was determined as the displacement of the radioligand by 100 nM CCK-8 sulfate.

SMILES	inhibition at 10 µM [1] [%]	IC50 (brain CCK receptor) [nM]	inhibition at 10 µM (brain CCK receptor) [%]	other results
O=C1NN(C(=O)NCc2cccc(Cl)c2)[C@@H](c2ccccc2)[C@@H]1c1ccccc1 (relative stereo) [Example 99]	86	3300	–	–
O=C1NN(C(=O)Nc2ccc(F)cc2)[C@@H](c2ccccc2)[C@@H]1c1ccccc1 (relative stereo) [Example 17]	6	520	–	–
O=C1NN(C(=O)c2ccc(Cl)c(Cl)c2)[C@H](c2ccccc2)[C@H]1c1ccccc1 (relative stereo) [Example 75]	40	–	60	–
O=C1NN(C(=S)Nc2ccc(Cl)c(C(F)(F)F)c2)[C@H](c2ccccc2)[C@H]1c1ccccc1 (relative stereo) [Example 63]	–	510	–	IC50 [1]: 75 nM
CCCCc1ccc(NC(=O)N2NC(=O)[C@@H](c3ccccc3)[C@@H]2c2ccccc2)cc1 (relative stereo) [Example 28]	55	440	–	–
O=C1NN(C(=O)NC2CCCCC2)[C@@H](c2ccccc2)[C@@H]1c1ccccc1 (relative stereo) [Example 95]	18	–	55	–
CCCCC1C(=O)NN(C(=O)Nc2ccc(Br)cc2)C1c1ccccc1 (centres unmarked) [Example 69]	12	500	–	–
O=C1NN(c2nc3c(Cl)c(Cl)ccc3s2)[C@@H](c2ccccc2)[C@@H]1c1ccccc1 (relative stereo) [Example 86]	58	–	–	–
CN1C(=O)[C@H](c2ccccc2)[C@@H](c2ccccc2)N1C(=O)Nc1cccc(Cl)c1Cl (relative stereo) [Example 66]	23	–	40	–
O=C1NN(C(=O)Nc2cccc(Cl)c2Cl)[C@H](c2ccccc2)[C@H]1c1ccccc1 (relative stereo) [Example 54]	53	1150	–	–
O=C1NN(C(=O)Nc2ccncc2)[C@@H](c2ccccc2)[C@@H]1c1ccccc1 (relative stereo) [Example 89]	21	–	34	–
O=C1NN(C(=O)Nc2cccc(C(F)(F)F)c2)[C@@H](c2ccccc2)[C@@H]1c1ccccc1 (relative stereo) [Example 39]	52	330	–	–
CCOC(=O)c1ccc(NC(=O)N2NC(=O)[C@@H](c3ccccc3)[C@@H]2c2ccccc2)cc1 (relative stereo) [Example 22]	27	–	–	inhibition at 1 µM (brain CCK receptor): 42%
O=C1NN(C(=O)NCCc2ccc(Cl)cc2)[C@@H](c2ccccc2)[C@@H]1c1ccccc1 (relative stereo) [Example 107]	61	–	86	–
O=C1NN(C(=O)Nc2ccc(Br)cc2)C(c2ccc([N+](=O)[O-])cc2)C1c1ccccc1 (centres unmarked) [Example 119]	64	1200	–	–
O=C1NN(C(=O)Nc2ccc(OCCc3ccccc3)cc2)[C@@H](c2ccccc2)[C@@H]1c1ccccc1 (relative stereo) [Example 36]	33	450	–	–

SMILES	inhibition at 10 µM [1] [%]	IC50 (brain CCK receptor) [nM]	inhibition at 10 µM (brain CCK receptor) [%]	other results
COc1ccc(NC(=O)N2NC(=O)[C@H](c3ccccc3)[C@H]2c2ccccc2)cc1OC (relative stereo) [Example 51]	25	–	–	inhibition at 1 µM (brain CCK receptor): 18%
O=C1NN(C(=O)NCCCc2ccccc2)[C@@H](c2ccccc2)[C@@H]1c1ccccc1 (relative stereo) [Example 108]	87	1300	–	–
O=C1NN(C(=O)Nc2ccc(Br)c(C(F)(F)F)c2)[C@H](c2ccccc2)[C@H]1c1ccccc1 (relative stereo) [Example 45]	–	22	–	IC50 [1]: 160 nM
O=C1NN(C(=O)NCc2ccccc2)[C@@H](c2ccccc2)[C@@H]1c1ccccc1 (relative stereo) [Example 96]	13	–	42	–
CN(Cc1ccccc1)C(=O)N1NC(=O)[C@@H](c2ccccc2)[C@@H]1c1ccccc1 (relative stereo) [Example 97]	–	–	42	–
O=C(Nc1cccc(C(F)(F)F)c1)N1N[C@@H](c2ccccc2)[C@H](c2ccccc2)C1=O (relative stereo) [Example 82]	–	–	23	–
O=C1NN(C(=S)Nc2ccc(Cl)c(C(F)(F)F)c2)[C@@H](c2ccccc2)[C@@H]1c1ccccc1 (single isomer, unassigned) [Example 142, (+)-trans-1-[(4-Chloro-3-trifluoromethylphenyl)-aminothiocarbonyl]-4,5-diphenyl-3-pyrazolidinone]	–	–	–	IC50 [1]: 17 nM
O=C1NN(C(=S)NCc2ccc(Cl)c(Cl)c2)[C@@H](c2ccccc2)[C@@H]1c1ccccc1 (relative stereo) [Example 138]	–	–	–	IC50 [1]: 69 nM
O=C1NN(C(=O)Nc2ccc(Br)cc2)[C@@H](c2ccccc2)[C@@H]1c1ccccc1 (single isomer, unassigned) [Example 140, (-)-trans-1-[(4-Bromophenyl)aminocarbonyl]-4,5-diphenyl-3-pyrazolidinone]	–	370	–	–
CCCCNC(=O)N1NC(=O)[C@H](c2ccccc2)[C@H]1c1ccccc1 (relative stereo) [Example 94]	–	–	50	–
O=C1NN(C(=O)Nc2ccc3ccccc3c2)[C@@H](c2ccccc2)[C@@H]1c1ccccc1 (relative stereo) [Example 91]	94	–	–	–
COC1=NN(C(=O)Nc2ccc(C(F)(F)F)cc2)[C@@H](c2ccccc2)[C@@H]1c1ccccc1 (relative stereo) [Example 13, 1-[(4-Trifluoromethylphenyl)aminocarbonyl]-3-methoxy-4,5diphenyl-2-pyrazoline]	–	–	67	–
CN1C(=O)[C@H](c2ccccc2)[C@@H](c2ccccc2)N1C(=O)Nc1ccc(C(F)(F)F)cc1 (relative stereo) [Example 67]	–	–	46	–
O=C1NN(C(=S)Nc2ccc(Cl)c(C(F)(F)F)c2)[C@@H](c2ccccc2)[C@@H]1c1ccccc1 (single isomer, unassigned) [Example 143, (-)-trans-1-[(4-Chloro-3-trifluoromethylphenyl)-aminothiocarbonyl]-4,5-diphenyl-3-pyrazolidinone]	–	–	–	IC50 [1]: 810 nM
O=C1NN(C(=S)Nc2cnc3ccccc3c2)[C@@H](c2ccccc2)[C@@H]1c1ccccc1 (relative stereo) [Example 137]	–	–	–	IC50 [1]: 32 nM

Source: patent publication US5399565A, “Pyrazolidinone CCK and gastrin antagonists and pharmaceutical formulations therof” (priority 1993, dated 1995)
